Test results published in patent US20230405095A1, “DOSING REGIMEN” (VIIV HEALTHCARE UK (NO. 7) LIMITED, priority 2022, published 2023).
Several values for one entry are separate records, joined by “and”; a condition that tells them apart may be missing. Equal entries are not always repeated. Where two headings read alike, the source gives them in different places.

How the values were obtained:
[1] = CAB Cmax safety threshold; type: in vivo; settings: CAB plasma concentration; read-out: safety threshold: Cmax not associated with any toxicity
[2] = Blood pharmacokinetics of cabotegravir after a single subcutaneous administration with or without rHuPH20; type: in vivo, male Sprague-Dawley rats; settings: for Tmax / half-life / AUC(0-t) / Cmax / AUC (0-tlast) / T½: rat blood; for half-life: read-out: T½ (converted); for AUC(0-t): read-out: AUC (0-tlast)
Description: Cabotegravir (free acid) was supplied by the Department of Pharmaceutical Development, at GSK, Upper Providence (UP), as a wet bead milled suspension (WBM), of nominal 200 mg/mL active concentration, white to slightly pink in appearance to be used for subcutaneous (SC) injection. The test article was milled and supplied in an aqueous vehicle (see Table 1). The test article was filled into vials, stoppered, sealed and subjected to gamma sterilization at between 25-45 kGy.
Twelve male Sprague-Dawley rats (body weight approximately 275-300 grams upon arrival), from Charles River Laboratories, Raleigh, were used in this study. Rats were randomized by number one day prior to the start of study. All rats were euthanized at study end.
Dose volumes administered for cabotegravir (target concentration of 200 mg/mL) were based on animal weights obtained just prior to dosing to achieve a target dosage of 10 mg/kg (groups 1 and 2) and 5 mg/kg (groups 3 and 4). Test article was resuspended prior to dosing by inverting supplied vials and checking vial bottom for non-resuspended sediments. Syringes used to dose cabotegravir were weighed pre- and post-dose to determine exact amount of cabotegravir administered. Rats were lightly anesthetized under isoflurane for a short period to perform the dosing procedure. Injection sites were shaved immediately prior to dosing, wiped with alcohol and allowed to dry. For groups 1 and 3, the cabotegravir doses were injected subcutaneously into the lower scapular region. After removing the dosing needle, minimal, but adequate, pressure was applied to the skin at the injection site (i.e., to keep the site still and closed) for approximately 1 minute to enable coagulation and sealing of the puncture. The sites were observed immediately after the needle was withdrawn to note any dose leakage. For groups 2 and 4, the rHuPH20 was injected subcutaneously first (approximately 3000 units in 100 μL, these syringes were not weighed), immediately followed by the Cabotegravir injection with the goal of injecting both formulations in the same subcutaneous space of the lower scapular region. After removing the second dosing needle, minimal, but adequate, pressure was applied to the skin at the injection site (i.e., to keep the site still and closed) for approximately 1 minute to enable coagulation and sealing of the puncture. Any dose leakage was noted. Injection sites were monitored daily for the first week of study and then weekly for the remainder of the study and observations recorded. Body weights were recorded on day 0 and then weekly for the remainder of the study.
Blood samples were collected via lateral vein or tail tip amputation. On study Day 0, following subcutaneous injection, blood samples (approximately 75 μL/rat/time point) were collected into 500 μL K2 EDTA tubes at 1, 2, 4 and 8 hr. Samples were then collected at 24 hrs., 48 hrs., and on Days 3, 7, 14, 21, 28, 56 and 84. Exactly 75 μL of whole blood was pipetted into a new tube containing 75 μL of sterile water. Samples were vortexed and placed on dry ice immediately. Samples were stored at −80° C. until transferred to Yinghe Li (DMPK, US) for analysis.
Rat blood: water samples were analyzed for cabotegravir using an analytical method based on protein precipitation, followed by UPLC/MS/MS analysis. The lower limit of quantification (LLQ) for cabotegravir was 5 ng/mL using a 150 μL aliquot of rat blood: water with a higher limit of quantification (HLQ) of 20000 ng/mL. Analyst software version 1.7.1 was used to acquire and process LC-MS/MS data. The applicable analytical runs met all predefined run acceptance criteria.
Pharmacokinetic analysis of cabotegravir blood concentration-time data was performed by a non-compartmental method using Phoenix WinNonlin®, Version 8.1 software. All computations utilized nominal sampling times and doses for the study. […]

[3] = Clinical PK of single SC injection of CAB200 with rHuPH20 (Studies 212482 and 218012); type: in vivo, healthy adult participants; settings: SC with rHuPH20, dose level of 3200 mg or lower
Description: In a Phase 1 open-label, dose-escalation study to investigate the safety, tolerability and pharmacokinetics of single-dose administration of various CAB formulations with and without rHuPH20 in healthy adult participants, CAB200 at doses of 800, 1600 and 3200 mg have been administered with rHuPH20 (10,000 IU). rHuPH20 and CAB formulations were administered sequentially; subcutaneous (SC) administration by a health care provider (HCP) is via a butterfly needle and slow SC infusion in the abdominal SC tissue using a syringe pump.
A summary of CAB200 LA SC PK data with rHuPH20 is set forth in the Table below. • In Study 212482, single SC injection of CAB200 (2 mL/400 mg) with rHuPH20 (5000 units) was studied in Cohort 4 h. • In Study 218012, single SC injection of CAB200 with rHuPH20 was studied in cohorts A1 (4 mL/800 mg CAB200), A2 (8 mL/1600 mg CAB200) and A3 (16 mL/3200 mg CAB200). The dose of rHuPH20 was 10000 units. In both studies, rHuPH20 was injected first, followed by SC injection of CAB200.

HIV-1 strains = settings: integrase strand transfer inhibitor; broad range of HIV-1 strains; cited from earlier work
[4] = male, Sprague-Dawley, rat, whole blood, sc, 5 mg/kg, single SC 5 mg/kg, with rHuPH20 approx. 3000 units SC (Group 4), mean ± SD
[5] = male, Sprague-Dawley, rat, whole blood, sc, 5 mg/kg, single SC 5 mg/kg, without rHuPH20 (Group 3), individual animals
[6] = male, Sprague-Dawley, rat, whole blood, sc, 5 mg/kg, single SC 5 mg/kg, without rHuPH20 (Group 3), mean ± SD
[7] = male, Sprague-Dawley, rat, whole blood, sc, 10 mg/kg, single SC 10 mg/kg, with rHuPH20 approx. 3000 units SC (Group 2), mean ± SD
[8] = single SC 5 mg/kg, with rHuPH20 approx. 3000 units SC (Group 4), individual animals, 5 mg/kg
[9] = single SC 5 mg/kg, without rHuPH20 (Group 3), individual animals, 5 mg/kg
[10] = single SC 10 mg/kg, with rHuPH20 approx. 3000 units SC (Group 2), individual animals, 10 mg/kg
[11] = single SC 10 mg/kg, without rHuPH20 (Group 1), individual animals, 10 mg/kg

C[C@H]1CO[C@@H]2Cn3cc(C(=O)NCc4ccc(F)cc4F)c(=O)c(O)c3C(=O)N12 [Cabotegravir, N-((2,4-Difluorophenyl)methyl)-6-hydroxy-3-methyl-5,7-dioxo-2,3,5,7,11,11a hexahydro(1,3)oxazolo(3,2-a)pyrido(1,2-d)pyrazine-8-carboxamide]
Cmax [1]: 22500 ng/mL | Tmax ([2]; male, Sprague-Dawley, rat, whole blood, sc, 5 mg/kg, single SC 5 mg/kg, with rHuPH20 approx. 3000 units SC (Group 4), individual animals, read-out: Tmax): 14.2 days | half-life ([2]; male, Sprague-Dawley, rat, whole blood, sc, 5 mg/kg, single SC 5 mg/kg, with rHuPH20 approx. 3000 units SC (Group 4), individual animals): 10 days | AUC(0-t) [2, 4]: 2800 ± 993 µg·h/mL | Cmax ([2]; male, Sprague-Dawley, rat, whole blood, sc, 5 mg/kg, single SC 5 mg/kg, with rHuPH20 approx. 3000 units SC (Group 4), mean ± SD, read-out: Cmax): 3800 ± 1600 ng/mL | half-life [2, 4]: 7.5 days | Tmax ([2]; male, Sprague-Dawley, rat, whole blood, sc, 5 mg/kg, single SC 5 mg/kg, with rHuPH20 approx. 3000 units SC (Group 4), median, read-out: Tmax): 14.2 days | AUC(0-t) [2, 5]: 4540 µg·h/mL | Cmax ([2]; male, Sprague-Dawley, rat, whole blood, sc, 5 mg/kg, single SC 5 mg/kg, without rHuPH20 (Group 3), individual animals, read-out: Cmax): 7600 ng/mL | Tmax ([2]; male, Sprague-Dawley, rat, whole blood, sc, 5 mg/kg, single SC 5 mg/kg, without rHuPH20 (Group 3), individual animals, read-out: Tmax): 14.2 days | half-life [2, 5]: 8.33 days | AUC(0-t) [2, 6]: 4400 ± 903 µg·h/mL | Cmax ([2]; male, Sprague-Dawley, rat, whole blood, sc, 5 mg/kg, single SC 5 mg/kg, without rHuPH20 (Group 3), mean ± SD, read-out: Cmax): 7000 ± 1500 ng/mL | half-life [2, 6]: 8.33 days | Tmax ([2]; male, Sprague-Dawley, rat, whole blood, sc, 5 mg/kg, single SC 5 mg/kg, without rHuPH20 (Group 3), median, read-out: Tmax): 14.2 days | AUC(0-t) ([2]; male, Sprague-Dawley, rat, whole blood, sc, 10 mg/kg, single SC 10 mg/kg, with rHuPH20 approx. 3000 units SC (Group 2), individual animals): 6280 µg·h/mL | Cmax ([2]; male, Sprague-Dawley, rat, whole blood, sc, 10 mg/kg, single SC 10 mg/kg, with rHuPH20 approx. 3000 units SC (Group 2), individual animals, read-out: Cmax): 10000 ng/mL | Tmax ([2]; male, Sprague-Dawley, rat, whole blood, sc, 10 mg/kg, single SC 10 mg/kg, with rHuPH20 approx. 3000 units SC (Group 2), individual animals, read-out: Tmax): 14.2 days | AUC(0-t) [2, 7]: 7730 ± 1930 µg·h/mL | Cmax ([2]; male, Sprague-Dawley, rat, whole blood, sc, 10 mg/kg, single SC 10 mg/kg, with rHuPH20 approx. 3000 units SC (Group 2), mean ± SD, read-out: Cmax): 9100 ± 2100 ng/mL | half-life [2, 7]: 15 days | Tmax ([2]; male, Sprague-Dawley, rat, whole blood, sc, 10 mg/kg, single SC 10 mg/kg, with rHuPH20 approx. 3000 units SC (Group 2), median, read-out: Tmax): 14.2 days | AUC(0-t) ([2]; male, Sprague-Dawley, rat, whole blood, sc, 10 mg/kg, single SC 10 mg/kg, without rHuPH20 (Group 1), individual animals): 5640 µg·h/mL | Tmax ([2]; male, Sprague-Dawley, rat, whole blood, sc, 10 mg/kg, single SC 10 mg/kg, without rHuPH20 (Group 1), individual animals, read-out: Tmax): 14.2 days | half-life ([2]; male, Sprague-Dawley, rat, whole blood, sc, 10 mg/kg, single SC 10 mg/kg, without rHuPH20 (Group 1), mean ± SD (animal 12 excluded)): 13.8 days | AUC(0-t) ([2]; male, Sprague-Dawley, rat, whole blood, sc, 10 mg/kg, single SC 10 mg/kg, without rHuPH20 (Group 1), mean ± SD): 7320 ± 2320 µg·h/mL | Cmax ([2]; male, Sprague-Dawley, rat, whole blood, sc, 10 mg/kg, single SC 10 mg/kg, without rHuPH20 (Group 1), mean ± SD, read-out: Cmax): 8000 ± 3500 ng/mL | Tmax ([2]; male, Sprague-Dawley, rat, whole blood, sc, 10 mg/kg, single SC 10 mg/kg, without rHuPH20 (Group 1), median, read-out: Tmax): 14.2 days | AUC (0-tlast) [2, 8]: 3348 µg·h/mL and 1654 µg·h/mL and 3397 µg·h/mL | Cmax [2, 8]: 3200 ng/mL and 2600 ng/mL and 5700 ng/mL | Tmax [2, 8]: 7.08 days | T½ [2, 8]: 160 h and 140 h | AUC (0-tlast) [2, 9]: 5221 µg·h/mL and 3432 µg·h/mL | Cmax [2, 9]: 5200 ng/mL | Tmax [2, 9]: 7.08 days | T½ [2, 9]: 220 h and 170 h | AUC (0-tlast) [2, 10]: 7008 µg·h/mL and 9916 µg·h/mL | Cmax [2, 10]: 6800 ng/mL | T½ [2, 10]: 210 h and 360 h and 510 h | AUC (0-tlast) [2, 11]: 9970 µg·h/mL and 6333 µg·h/mL | Cmax [2, 11]: 7100 ng/mL and 12000 ng/mL and 5100 ng/mL | T½ [2, 11]: 430 h and 230 h and 1100^b^ h | systemic exposure with versus without administration of rHuPH20 ([2]; rats, single SC 5 and 10 mg/kg, rHuPH20 3000 U): similar | systemic exposure as defined by AUC: dose proportionality ([2]; rats, single SC, target doses of 5 and 10 mg/kg): approximately dose proportional | CAB SC Cmax versus safety threshold [3]: < 22500 ng/mL | potency (HIV-1 strains): subnanomolar
